Data from US20220117938A1, “COMBINATON THERAPY WITH A DON PRODRUG AND AN IMMUNE CHECKPOINT INHIBITOR” (DRACEN PHARMACEUTICALS, INC., priority 2019, published 2022).

Tested on: Ninety four (94) cell lines and PBMC
Test: Cell viability assay, SRB staining, 94 cell lines and PBMC (Example 7, Experiment 2)
Format: cell-based
Protocol: Ninety four (94) cell lines were seeded at a density varying from 500 to 7000 cells/well depending on their growth characteristics. PBMC were seeded at the density 50,000-100,000 cells/well. Cells were incubated for 48 h prior to compound treatment. Compound 1 and DON were evaluated at a concertation range of 1 nM up to 100 μM. Compound 1 dilutions in DMSO and DON dilutions in PBS were performed in 96-well 0.5 mL plates (Greiner Bio-One, Germany). Compounds were then diluted 1:100 in RPMI medium. […] of cells were treated by mixing with 10 μL of the compound-containing media (resulting in a final DMSO concentration of 0.1%). The cells were allowed to grow at 37° C. for 120 h. Cells were fixed to the surface by addition of 10% TCA (for adherent growing cells) or 50% TCA (for semi-adherent growing cells or cells growing in suspension). After an hour of incubation at 4° C., plates were washed twice with 400 μL of deionized water and dried. Cells were then stained with 100 μL of 0.04% wt/v SRB. The plates were incubated at room temperature for at least 30 min and washed six times with 1% acetic acid to remove unbound stain. The plates were left to dry at room temperature and bound SRB was solubilized with 100 μL of 10 mM Tris base. Optical density was measured at 492, 520 and 560 nm using a Deelux-LED96 plate reader (Deelux Labortechnik GmbH, Germany).
Cell lines were purchased directly from the ATCC, NCI, CLS, and DSMZ cell line collections. A master bank and working aliquots were prepared. Cells used for the study had undergone less than 20 passages. To rule out potential contamination or wrong assignment, all cell lines were tested by STR analysis. Absence of mycoplasma contamination was confirmed for all cell lines used in the studies.
The cell lines were grown in the media recommended by the suppliers in the presence of 100 U/mL penicillin and 100 μg/mL streptomycin supplied with 10% FCS (PAA, Germany). RPMI 1640, DMEM, and MEM Earle's medium were from PAA (Coelbe, Germany), supplements 2 mM L-glutamine, 1 mM Na-pyruvate and 1% NEAA were from PAA (Coelbe, Germany), 2.5% horse serum, hydrocortisone, transferin, beta-estradiol, selenite and 1 U/mL insulin from Sigma-Aldrich (Munich, Germany). RPMI medium was used for culturing the following cell lines: 5637, 22RV1, 7860, A2780, A431, A549, ACHN, ASPC1, BT20, BXPC3, CAKI1, CLS439, COLO205, COLO678, DLD1, DU145, EFO21, EJ28, HCT15, HS578T, IGROV1, JAR, LOVO, MCF7, MDA MB231, MDA MB435, MDA MB436, MDA MB468, MHHES1, MT3, NCI H292, NCI H358M, NCI H460, NCIH82, OVCAR3, OVCAR4, PANC 1005 (addition of insulin), PBMC, PC3, RDES, SF268, SF295, SKBR3, SK MEL28, SKMEL5, SKOV3, SW620, U2OS, UMUC3, and U031.
DMEM medium was used to culture A204, A375, A673, C33A, CASKI, HCT116, HEPG2, HS729, HT29, J82, MG63, MIAPACA2 (addition of horse serum), PANC1, PLCPRF5, RD, SAOS2, SKLMS1, SKNAS, SNB75, T24, and TE671.
MEM Earle's medium was used for CACO2, CALU6, HEK293, HELA, HT1080, IMR90, JEG3, JIMT1, SKHEP1, SKNSH, and U87MG. Cell seeding conditions were optimized for each cell line. The cell seeding density varied from 500 to 7000 cells/well depending on their growth characteristics. Peripheral blood mononuclear cells (PBMC) were freshly isolated from whole blood of an anonymous donor through density gradient centrifugation using Ficoll solution (d=1.077). In short, blood was diluted 1:1 with PBS and carefully placed on the Ficoll. After centrifugation 1000×g for 15 min (braking rate 0), the ring containing mainly leucocytes was collected in PBS followed by three times washing with PBS to reduce the platelets. PBMC were seeded at the density 50,000-100,000 cells/well. Cells were grown in 5% CO2 atmosphere in a NB-203XXL incubator (N-BIOTEK Inc., Korea).
Ninety-four cell lines were tested in parallel. Cell growth and treatment were performed in 96 well microtitre plates CELLSTAR® (Greiner Bio-One, Germany). […]

[1] = Homo sapiens, MDA-MB-468, MDAMB468, breast
[2] = Homo sapiens, MG-63, MG63, bone
[3] = Homo sapiens, MHH-ES-1, MHHES1, bone
[4] = Homo sapiens, MIA PaCa-2, MIAPACA2, pancreas
[5] = Homo sapiens, MINO, hematological
[6] = Homo sapiens, MV4-11, MV4-11, hematological
[7] = Homo sapiens, NCI-H460, NCIH460, lung
[8] = Homo sapiens, OVCAR-3, OVCAR3, ovary
[9] = Homo sapiens, OVCAR-4, OVCAR4, ovary
[10] = Homo sapiens, PANC-1, PANC1, pancreas
[11] = Homo sapiens, PLC-PRF-5, PLCPRF5, liver
[12] = Homo sapiens, Panc1005, PANC1005, pancreas
[13] = Homo sapiens, SAOS-2, SAOS2, bone
[14] = Homo sapiens, SF-268, SF268, brain
[15] = Homo sapiens, SF-295, SF295, brain
[16] = Homo sapiens, SK-BR-3, SKBR3, breast
[17] = Homo sapiens, SK-HEP1, SKHEP1, liver
[18] = Homo sapiens, SK-LMS-1, SKLMS1, uterus
[19] = Homo sapiens, SK-MEL-5, SKMEL5, skin
[20] = Homo sapiens, SK-MEL-28, SKMEL28, skin
[21] = Homo sapiens, SK-N-AS, SKNAS, brain
[22] = Homo sapiens, SK-N-SH, SKNSH, brain
[23] = Homo sapiens, SK-OV-3, SKOV3, ovary
[24] = Homo sapiens, SNB-75, SNB75, brain
[25] = Homo sapiens, SU-DHL-6, SU-DHL-6, hematological
[26] = Homo sapiens, SW-620, SW620, colon
[27] = Homo sapiens, TE-671, TE671, muscle
[28] = Homo sapiens, THP-1, THP-1, hematological
[29] = Homo sapiens, U-87 MG, U87MG, brain
[30] = Homo sapiens, UMUC3, UMUC3, bladder
[31] = Homo sapiens, UO-31, UO31, kidney
[32] = Homo sapiens, WSU-NHL, hematological

CC(=O)N[C@@H](Cc1c[nH]c2ccccc12)C(=O)N[C@@H](CCC(=O)C=[N+]=[N-])C(=O)OC(C)C [Compound 1, Isopropyl (S)-2-((S)-2-acetamido-3-(1H-indol-3-yl)propanamido)-6-diazo-5-oxohexanoate]
GI50 [1]: 0.531 µM | IC50 [1]: 0.789 µM | GI50 [2]: 4.6 µM | IC50 [2]: 5.38 µM | GI50 [3]: 6.19 µM | IC50 [3]: 6.34 µM | GI50 [4]: 3.29 µM | IC50 [4]: 3.56 µM | GI50 [5]: 0.61 µM | IC50 [5]: 0.798 µM | GI50 [6]: 0.976 µM | IC50 [6]: 1.03 µM | GI50 (Homo sapiens, NCI-H292, NCIH292, lung): 14.5 µM | GI50 [7]: 4.74 µM | IC50 [7]: 5.01 µM | GI50 [8]: 1.65 µM | IC50 [8]: 4.06 µM | GI50 [9]: 0.812 µM | IC50 [9]: 1.67 µM | GI50 [10]: 7.98 µM | IC50 [10]: 8.46 µM | GI50 [11]: 6.15 µM | IC50 [11]: 7.45 µM | GI50 [12]: 14.8 µM | IC50 [12]: 28.9 µM | GI50 (Homo sapiens, Ramos, hematological): 6.63 µM | GI50 [13]: 2.8 µM | IC50 [13]: 20.8 µM | GI50 [14]: 7.37 µM | IC50 [14]: 9.53 µM | GI50 [15]: 9.73 µM | IC50 [15]: 10.9 µM | GI50 [16]: 2.65 µM | IC50 [16]: 3.91 µM | GI50 [17]: 3.93 µM | IC50 [17]: 5.12 µM | GI50 [18]: 1.34 µM | IC50 [18]: 2.15 µM | GI50 [19]: 2.05 µM | IC50 [19]: 2.9 µM | GI50 [20]: 1.23 µM | IC50 [20]: 1.61 µM | GI50 [21]: 7.62 µM | IC50 [21]: 18.6 µM | GI50 [22]: 8.18 µM | IC50 [22]: 9.15 µM | GI50 [23]: 1.26 µM | IC50 [23]: 3.81 µM | GI50 [24]: 18.4 µM | IC50 [24]: 40 µM | GI50 (Homo sapiens, SU-DHL10, SU-DHL-10, hematological): 4.18 µM | GI50 [25]: 0.971 µM | IC50 [25]: 1.13 µM | GI50 [26]: 7.96 µM | IC50 [26]: 8.58 µM | GI50 [27]: 5.44 µM | IC50 [27]: 5.97 µM | GI50 [28]: 1.99 µM | IC50 [28]: 2.25 µM | GI50 (Homo sapiens, U2OS, bone): 10 µM | IC50 (Homo sapiens, U2OS, bone): 12.9 µM | GI50 [29]: 2.38 µM | IC50 [29]: 4.1 µM | GI50 [30]: 2.32 µM | IC50 [30]: 2.75 µM | GI50 [31]: 17.7 µM | IC50 [31]: 44.9 µM | GI50 [32]: 1.16 µM | IC50 [32]: 1.5 µM | IC50 (J82, bladder): 15.9 µM | IC50 (JAR, placenta): 2.41 µM | IC50 (MT3, breast): 1.46 µM | GI50 (NCI-H358M, NCIH358M, lung): 3.31 µM | IC50 (NCI-H358M, NCIH358M, lung): 8.92 µM | GI50 (PBMC, 5637, bladder): 2.15 µM | GI50 (PBMC, CLS439, bladder): 7.57 µM | GI50 (PBMC, HS729, muscle): 10.1 µM | GI50 (PBMC, J82, bladder): 14.2 µM | GI50 (PBMC, JAR, placenta): 2.23 µM | GI50 (PBMC, MT3, breast): 1.1 µM | GI50 (PBMC, PC3, prostate): 11.5 µM | GI50 (PBMC, RD, muscle): 4.05 µM | GI50 (PBMC, T24, bladder): 4.71 µM | IC50 (PC3, prostate): 17.9 µM | IC50 (RD, muscle): 5.44 µM | GI50 (RD-ES, RDES, bone): 3.95 µM | IC50 (RD-ES, RDES, bone): 5.48 µM | IC50 (T24, bladder): 4.95 µM
